What was measured:
ROS tyrosine kinase = target: T1, ROS tyrosine kinase (Homo sapiens, UniProt P08922); test: ROS tyrosine kinase inhibitory activity test (ELISA); assay type: biochemical, humans; details: 25 μM ATP substrate solution, 30° C., one hour
T1 construct: purchased Carna Biosciences, Inc
Experimental: (§1) 1. Preparation of Test Substance:
(§2) A test substance was dissolved in dimethyl sulfoxide (DMSO) to 10 mM and further diluted with DMSO to concentrations of 100-fold of the concentrations to be measured (100, 10, 1, 0.1, and 0.01 μM). Furthermore, the resultant was diluted with an assay buffer to 20-fold, thereby preparing a solution as a test substance solution. A solution prepared by diluting DMSO with an assay buffer to 20-fold was used as a negative control. A buffer containing 15 mM Tris-Cl (pH 7.5), 0.01 (v/v) % Tween-20, and 1 mM dithiothreitol was used as the assay buffer.
(§3) 2. Measurement of ROS Tyrosine Kinase Activity and JAK2 Tyrosine Kinase Activity:
(§4) The activity was measured by adopting the ELISA method. […] Finally, an ROS kinase or a JAK2 kinase (derived from humans, Carna Biosciences, Inc.) (diluted with the assay buffer to 0.25 nM) was added to the plate at 20 μL per well, and the resulting mixture was stirred. A reaction was performed at 30° C. for one hour. After the plate was washed 4 times with a washing buffer (50 mM Tris-Cl (pH 7.5), 150 mM NaCl, and 0.02 (v/v) % Tween-20), a blocking buffer (0.1% bovine serum albumin, 50 mM Tris-Cl (pH 7.5), 150 mM NaCl, and 0.02 (v/v) % Tween-20) was added to the plate at 150 μL per well, and incubated at 30° C. for 30 minutes. The blocking buffer was then removed, and a horse radish peroxidase-labeled anti-phosphorylated tyrosine antibody (BD Biosciences, Inc.) (diluted with the blocking buffer to 10,000-fold) was added to the plate at 100 μL per well, and the plate was incubated at 30° C. for 30 minutes. After the plate was washed 4 times with the washing buffer, a 3,3′,5,5′-tetramethylbenzidine solution (Sigma-Aldrich Co., Ltd.) was added to the plate at 100 μL per well to develop the color for 10 minutes. The reaction was stopped by adding 0.1 M sulfuric acid at 100 μL per well. An absorbance at 450 nm was measured with a microplate reader (Model 3550, manufactured by BIO-RAD, Benchmark, manufactured by BIO-RAD, or iMARK, manufactured by BIO-RAD).
(§5) 3. Analysis of Measurement Results:
(§6) A non-linear regression analysis was performed for the measured absorbance with an SAS system (SAS Institute Inc.), and a concentration of each of the test substances of inhibiting the ROS tyrosine kinase activity or JAK2 tyrosine kinase activity at 50% (IC50) was calculated. The inhibitory activity (IC50, nM) of each of the test substances against the ROS tyrosine kinase or JAK2 tyrosine kinase is shown in Tables 6 to 8.

JAK2 tyrosine kinase = target: T2, JAK2 tyrosine kinase (Homo sapiens, UniProt O60674); test: JAK2 tyrosine kinase inhibitory activity test (ELISA); assay type: biochemical, humans; details: 25 μM ATP substrate solution, 30° C., one hour
T2 construct: purchased Carna Biosciences, Inc
Experimental: as §1, §2, §3, §4, §5, §6

FIG-ROS/BaF3 cell = target: T3, FIG-ROS/BaF3 cell (Homo sapiens, UniProt P08922); test: Proliferation inhibitory activity test against FIG-ROS/BaF3 cell; assay type: cell-based; details: 3 days incubation, cell counting kit; read-out: Proliferation inhibitory activity against FIG-ROS/BaF3 cell (IC50)
T3 construct: fused on or other part: Q9HD26 (Golgi-associated PDZ and coiled-coil motif-containing protein)
Experimental: A BaF3 cell which had been transformed by introducing the FIG-ROS fusion gene (derived from U118MG human glioma cell) (FIG-ROS/BaF3 Cell) was prepared on a culture medium, seeded on a 96-well plate in the number of 1×10^3/100 μL per well, and then allowed to stand in a CO2 incubator (at 37° C. and 5% CO2). As the culture medium, 10% FBS (fetal bovine serum)-incorporated RPMI-1640 was used.
2. Proliferation Inhibitory Activity Test:
A test substance was dissolved in dimethyl sulfoxide (DMSO) to 10 mM and further diluted with DMSO to 100-fold to prepare a 100 μM solution. This was diluted with a 1% DMSO-incorporated medium to concentrations of 10-fold of the concentration to be measured (10,000, 1,000, 100, 10, and 1 nM). Each of the medicine solutions was added at 11 μL per well and mixed. To a control having no medicine added thereto, a 1% DMSO-incorporated medium was added, and incubated in a CO2 incubator (at 37° C. and 5% CO2) for 3 days. After completion of the incubation, the number of live cells was counted using a cell counting kit. First of all, each cell counting kit solution was added at 5 μL per well and mixed, and incubated in a CO2 incubator (at 37° C. and 5% CO2) for 4 hours. An absorbance at 450 nm was measured with a microplate reader (Model 3550, manufactured by BIO-RAD, Benchmark, manufactured by BIO-RAD, or iMARK, manufactured by BIO-RAD) with a reference wavelength of 650 nm.
as §5
A non-linear regression analysis was performed for the measured absorbance with an SAS system (SAS Institute Inc.), and a concentration of each of the test substances of inhibiting the cell proliferation at 50% (IC50) was calculated. The proliferation inhibitory activity (IC50, nM) of each of the test substances against the FIG-ROS/BaF3 cell is shown in Table 9.

T1 sequence (P08922 28-2347): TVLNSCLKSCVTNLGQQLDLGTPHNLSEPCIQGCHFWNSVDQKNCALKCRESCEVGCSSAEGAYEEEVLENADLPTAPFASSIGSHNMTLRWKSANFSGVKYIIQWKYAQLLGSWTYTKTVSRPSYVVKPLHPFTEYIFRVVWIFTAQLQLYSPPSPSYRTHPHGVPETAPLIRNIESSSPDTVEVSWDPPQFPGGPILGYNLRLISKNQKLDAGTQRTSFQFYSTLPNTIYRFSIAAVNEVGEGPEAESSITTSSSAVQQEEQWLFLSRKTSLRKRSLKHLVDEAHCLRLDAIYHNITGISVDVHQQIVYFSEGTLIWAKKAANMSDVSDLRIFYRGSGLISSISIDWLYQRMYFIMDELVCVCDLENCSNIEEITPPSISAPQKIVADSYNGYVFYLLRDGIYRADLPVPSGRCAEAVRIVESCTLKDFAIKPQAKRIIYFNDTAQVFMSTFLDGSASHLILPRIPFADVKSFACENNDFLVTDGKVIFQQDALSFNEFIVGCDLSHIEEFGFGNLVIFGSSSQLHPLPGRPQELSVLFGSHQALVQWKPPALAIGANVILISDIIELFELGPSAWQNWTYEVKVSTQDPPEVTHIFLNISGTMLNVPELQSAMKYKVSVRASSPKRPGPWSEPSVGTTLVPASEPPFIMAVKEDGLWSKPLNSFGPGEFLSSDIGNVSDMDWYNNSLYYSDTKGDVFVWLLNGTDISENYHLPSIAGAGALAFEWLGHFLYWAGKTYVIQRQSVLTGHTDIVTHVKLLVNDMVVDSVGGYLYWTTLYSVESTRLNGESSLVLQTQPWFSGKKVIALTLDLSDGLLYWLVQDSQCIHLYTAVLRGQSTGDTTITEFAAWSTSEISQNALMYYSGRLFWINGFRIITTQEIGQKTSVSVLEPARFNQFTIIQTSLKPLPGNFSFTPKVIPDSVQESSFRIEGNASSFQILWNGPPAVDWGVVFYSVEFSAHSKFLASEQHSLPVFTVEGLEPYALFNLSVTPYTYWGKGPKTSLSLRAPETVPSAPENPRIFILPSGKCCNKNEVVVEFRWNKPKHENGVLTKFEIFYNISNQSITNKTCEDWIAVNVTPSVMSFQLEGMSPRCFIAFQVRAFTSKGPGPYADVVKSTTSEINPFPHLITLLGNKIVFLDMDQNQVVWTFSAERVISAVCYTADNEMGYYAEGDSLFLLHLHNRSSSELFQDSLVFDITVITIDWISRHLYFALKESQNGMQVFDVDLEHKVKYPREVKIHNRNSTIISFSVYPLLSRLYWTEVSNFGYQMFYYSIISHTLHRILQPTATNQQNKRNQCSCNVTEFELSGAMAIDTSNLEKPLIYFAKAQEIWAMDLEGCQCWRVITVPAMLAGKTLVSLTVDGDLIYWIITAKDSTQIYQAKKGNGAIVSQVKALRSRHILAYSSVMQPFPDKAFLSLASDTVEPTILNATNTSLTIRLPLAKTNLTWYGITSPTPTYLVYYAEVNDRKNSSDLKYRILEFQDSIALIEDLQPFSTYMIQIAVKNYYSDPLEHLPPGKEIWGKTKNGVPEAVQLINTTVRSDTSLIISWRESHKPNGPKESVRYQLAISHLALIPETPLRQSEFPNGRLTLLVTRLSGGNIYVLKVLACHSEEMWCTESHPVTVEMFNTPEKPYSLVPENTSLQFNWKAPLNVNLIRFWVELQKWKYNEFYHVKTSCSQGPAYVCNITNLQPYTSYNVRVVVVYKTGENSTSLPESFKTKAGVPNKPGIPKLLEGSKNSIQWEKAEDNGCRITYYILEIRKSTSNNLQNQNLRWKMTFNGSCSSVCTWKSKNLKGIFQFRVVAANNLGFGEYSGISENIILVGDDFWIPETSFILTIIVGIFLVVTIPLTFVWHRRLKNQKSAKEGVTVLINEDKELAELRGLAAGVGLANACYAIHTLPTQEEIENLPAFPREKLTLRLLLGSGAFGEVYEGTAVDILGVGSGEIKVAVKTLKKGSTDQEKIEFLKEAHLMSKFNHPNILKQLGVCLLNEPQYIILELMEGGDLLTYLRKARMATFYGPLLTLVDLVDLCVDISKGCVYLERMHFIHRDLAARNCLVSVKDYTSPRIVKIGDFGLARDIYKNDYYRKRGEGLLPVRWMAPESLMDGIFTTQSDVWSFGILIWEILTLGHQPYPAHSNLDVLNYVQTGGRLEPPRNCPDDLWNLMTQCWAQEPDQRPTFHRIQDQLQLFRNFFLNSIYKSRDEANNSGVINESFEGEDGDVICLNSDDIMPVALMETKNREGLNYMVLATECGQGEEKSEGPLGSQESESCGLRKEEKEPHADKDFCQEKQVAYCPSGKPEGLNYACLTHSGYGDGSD
T3 sequence (P08922 whole entry, stated change not applied, the tested form may be a part): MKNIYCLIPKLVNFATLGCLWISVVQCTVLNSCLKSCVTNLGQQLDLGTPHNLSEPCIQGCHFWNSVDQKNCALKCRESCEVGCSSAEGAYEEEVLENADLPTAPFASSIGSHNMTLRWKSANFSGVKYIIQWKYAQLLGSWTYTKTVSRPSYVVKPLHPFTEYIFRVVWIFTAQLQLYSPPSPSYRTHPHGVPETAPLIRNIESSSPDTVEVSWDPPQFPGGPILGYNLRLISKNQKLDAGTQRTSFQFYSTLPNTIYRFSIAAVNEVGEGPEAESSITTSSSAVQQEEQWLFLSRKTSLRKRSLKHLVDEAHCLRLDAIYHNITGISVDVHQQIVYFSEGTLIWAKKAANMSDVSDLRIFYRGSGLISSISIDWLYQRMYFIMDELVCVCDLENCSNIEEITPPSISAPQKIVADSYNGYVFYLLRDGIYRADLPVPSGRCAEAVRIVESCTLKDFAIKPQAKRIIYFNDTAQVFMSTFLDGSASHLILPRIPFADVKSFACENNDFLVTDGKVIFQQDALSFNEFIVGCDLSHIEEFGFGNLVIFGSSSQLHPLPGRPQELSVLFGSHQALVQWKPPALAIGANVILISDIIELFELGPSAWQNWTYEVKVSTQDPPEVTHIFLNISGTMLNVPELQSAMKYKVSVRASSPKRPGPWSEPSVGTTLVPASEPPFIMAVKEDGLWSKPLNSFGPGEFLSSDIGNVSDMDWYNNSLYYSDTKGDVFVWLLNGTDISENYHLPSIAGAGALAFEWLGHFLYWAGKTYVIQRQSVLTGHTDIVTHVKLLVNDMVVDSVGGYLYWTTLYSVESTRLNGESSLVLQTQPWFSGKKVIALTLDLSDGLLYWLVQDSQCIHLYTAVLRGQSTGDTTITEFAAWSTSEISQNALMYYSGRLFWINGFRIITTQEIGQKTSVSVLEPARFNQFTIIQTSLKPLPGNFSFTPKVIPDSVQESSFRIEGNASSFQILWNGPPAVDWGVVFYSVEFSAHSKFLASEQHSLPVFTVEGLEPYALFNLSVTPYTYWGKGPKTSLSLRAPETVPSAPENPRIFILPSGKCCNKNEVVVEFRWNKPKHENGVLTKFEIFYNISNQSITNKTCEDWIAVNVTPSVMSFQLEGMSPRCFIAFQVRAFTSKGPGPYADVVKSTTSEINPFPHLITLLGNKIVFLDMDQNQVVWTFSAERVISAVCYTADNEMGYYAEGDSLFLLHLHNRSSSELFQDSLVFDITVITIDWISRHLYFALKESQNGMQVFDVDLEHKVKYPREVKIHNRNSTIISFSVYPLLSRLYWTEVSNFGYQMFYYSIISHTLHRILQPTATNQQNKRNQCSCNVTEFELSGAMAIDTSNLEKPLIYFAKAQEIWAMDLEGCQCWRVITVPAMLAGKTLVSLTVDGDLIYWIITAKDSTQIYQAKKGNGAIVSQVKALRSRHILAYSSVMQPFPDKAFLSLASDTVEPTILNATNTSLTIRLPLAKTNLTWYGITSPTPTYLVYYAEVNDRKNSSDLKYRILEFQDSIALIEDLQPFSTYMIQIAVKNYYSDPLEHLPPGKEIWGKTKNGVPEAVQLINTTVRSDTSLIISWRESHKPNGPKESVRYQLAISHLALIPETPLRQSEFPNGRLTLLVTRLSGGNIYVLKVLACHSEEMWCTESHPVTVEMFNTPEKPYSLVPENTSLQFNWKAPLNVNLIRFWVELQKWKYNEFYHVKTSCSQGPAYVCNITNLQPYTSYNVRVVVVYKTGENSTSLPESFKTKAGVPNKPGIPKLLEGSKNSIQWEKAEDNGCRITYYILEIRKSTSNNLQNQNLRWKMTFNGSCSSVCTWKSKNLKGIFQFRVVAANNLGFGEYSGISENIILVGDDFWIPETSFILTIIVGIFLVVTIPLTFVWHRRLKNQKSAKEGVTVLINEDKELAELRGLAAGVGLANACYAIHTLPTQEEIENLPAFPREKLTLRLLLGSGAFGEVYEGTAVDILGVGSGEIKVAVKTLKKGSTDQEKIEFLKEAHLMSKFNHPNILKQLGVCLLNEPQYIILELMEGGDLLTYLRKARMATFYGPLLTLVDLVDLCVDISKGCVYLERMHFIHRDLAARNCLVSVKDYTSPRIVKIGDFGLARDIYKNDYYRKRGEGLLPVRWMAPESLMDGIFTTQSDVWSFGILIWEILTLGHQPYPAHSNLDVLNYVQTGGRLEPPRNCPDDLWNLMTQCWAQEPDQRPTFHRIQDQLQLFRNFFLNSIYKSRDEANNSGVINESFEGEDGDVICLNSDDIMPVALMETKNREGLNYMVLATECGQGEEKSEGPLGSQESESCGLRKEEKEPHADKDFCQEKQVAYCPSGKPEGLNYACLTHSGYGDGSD

SMILES	IC50 (ROS tyrosine kinase)	IC50 (JAK2 tyrosine kinase)	GI50 (FIG-ROS/BaF3 cell)
COc1cc(OC)cc(C2CCCN2c2cncc(Nc3ncc(C#N)s3)n2)c1 (stereo not drawn) [Example 32, 2-({6-[2-(3,5-Dimethoxyphenyl)pyrrolidin-1-yl]pyrazin-2-yl}amino)-1,3-thiazol-5-carbonitrile]	4.4 nM	> 1000 nM	33 nM
N#Cc1cnc(Nc2cncc(N3CCCC3c3ccc(Cl)cc3)n2)s1 (stereo not drawn) [Example 48, 2-({6-[2-(4-Chlorophenyl)pyrrolidin-1-yl]pyrazin-2-yl}amino)-1,3-thiazole-5-carbonitrile]	0.6 nM	31 nM	1.9 nM
CCOC(=O)c1cnc(Nc2cncc(N3CCCC3c3ccc(C)cc3)n2)s1 (stereo not drawn) [Example 51, Ethyl 2-({6-[2-(4-methylphenyl)pyrrolidin-1-yl]pyrazin-2-yl}amino)-1,3-thiazole-5-carboxylate]	88 nM	930 nM	160 nM
COc1c(Nc2ncc(C#N)s2)nc(N2CCC[C@H]2c2ccc(C)cc2)nc1-c1cnn(CCO)c1 [Example 59, 2-({6-[1-(2-Hydroxyethyl)-1H-pyrazol-4-yl]-5-methoxy-2-[(2S)-2-(4-methylphenyl)pyrrolidin-1-yl]pyrimidin-4-yl}amino)-1,3-thiazole-5-carbonitrile]	1.5 nM	190 nM	1.3 nM
COc1c(Nc2ncc(C#N)s2)nc(N2CCC[C@H]2c2ccc(C)cc2)nc1-c1cnc(C)nc1 [Example 60, 2-({5-Methoxy-2′-methyl-2-[(2S)-2-(4-methylphenyl)pyrrolidin-1-yl]-4,5′-bipyrimidin-6-yl}amino)-1,3-thiazole-5-carbonitrile]	2.3 nM	740 nM	2.9 nM
COc1c(Nc2ncns2)nc(N2CCC[C@H]2c2ccc(C)cc2)nc1-c1cnn(CCO)c1 [Example 61, 2-(4-{5-Methoxy-2-[(2S)-2-(4-methylphenyl)pyrrolidin-1-yl]-6-(1,2,4-thiadiazol-5-ylamino)pyrimidin-4-yl}-1H-pyrazol-1-yl)ethanol]	2.5 nM	490 nM	1 nM
COc1c(Nc2ncc(C#N)s2)nc(N2CCC[C@H]2c2ccc(C)cc2)nc1C(=O)N[C@H]1CC[C@H](C(=O)O)CC1 [Example 63, Trans-4-[({6-[(5-cyano-1,3-thiazol-2-yl)amino]-5-methoxy-2-[(2S)-2-(4-methylphenyl)pyrrolidin-1-yl]pyrimidin-4-yl}carbonyl)amino]cyclohexanecarboxylic acid]	0.3 nM	120 nM	3.5 nM
COCCNC(=O)c1nc(N2CCC[C@H]2c2ccc(C)cc2)nc(Nc2ncc(C#N)s2)c1OC [Example 64, 6-[(5-Cyano-1,3-thiazol-2-yl)amino]-5-methoxy-N-(2-methoxyethyl)-2-[(2S)-2-(4-methylphenyl)pyrrolidin-1-yl]pyrimidine-4-carboxamide]	2.6 nM	> 1000 nM	1.5 nM

More lines, in order of falling IC50 (ROS tyrosine kinase), values ahead:

IC50 (ROS tyrosine kinase)	IC50 (JAK2 tyrosine kinase)	GI50 (FIG-ROS/BaF3 cell)	SMILES
12 nM	> 1000 nM	4.5 nM	N#Cc1cnc(Nc2cncc(N3CCCC3c3ccc(C(F)(F)F)cc3)n2)s1 (stereo not drawn) [Example 39, 2-[(6-{2-[4-(Trifluoromethyl)phenyl]pyrrolidin-1-yl}pyrazin-2-yl)amino]-1,3-thiazole-5-carbonitrile]
12 nM	≥ 1000 nM	9.4 nM	COc1c(Nc2ncc(C#N)s2)nc(N2CCCC2c2ccc(C)cc2)nc1-c1ccc(F)nc1 (stereo not drawn) [Example 50, 2-({6-(6-Fluoropyridin-3-yl)-5-methoxy-2-[2-(4-methylphenyl)pyrrolidin-1-yl]pyrimidin-4-yl}amino)-1,3-thiazole-5-carbonitrile]
7.3 nM	210 nM	7.6 nM	CCc1cnc(Nc2cncc(N3CCCC3c3ccc(C)cc3)n2)s1 (stereo not drawn) [Example 45, N-(5-Ethyl-1,3-thiazol-2-yl)-6-[2-(4-methylphenyl)pyrrolidin-1-yl]pyrazine-2-amine]
6.7 nM	> 1000 nM	8.2 nM	COc1c(C)nc(N2CCC[C@H]2c2ccc(C)cc2)nc1Nc1ncc(F)s1 [Example 56, N-(5-Fluoro-1,3-thiazol-2-yl)-5-methoxy-6-methyl-2-[(2S)-2-(4-methylphenyl)pyrrolidin-1-yl]pyrimidine-4-amine]
4.2 nM	> 1000 nM	2.1 nM	Cc1ccc(C2CCCN2c2nc(Nc3ncc(C#N)s3)c(C)nc2C)cc1 (stereo not drawn) [Example 43, 2-({3,5-Dimethyl-6-[2-(4-methylphenyl)pyrrolidin-1-yl]pyrazin-2-yl}amino)-1,3-thiazole-5-carbonitrile]
4.1 nM	> 1000 nM	12 nM	Cc1ccc([C@@H]2CCCN2c2cnc(C3CC3)c(Nc3ncc(C)s3)n2)cc1 [Example 34, 3-Cyclopropyl-6-[(2S)-2-(4-methylphenyl)pyrrolidin-1-yl]-N-(5-methyl-1,3-thiazol-2-yl)pyrazine-2-amine]
3.9 nM	190 nM	0.4 nM	Cc1ccc([C@@H]2CCCN2c2nc(Nc3ncc(C#N)s3)c(C)c(C(=O)NC3CCN(C)CC3)n2)cc1 [Example 54, 6-[(5-Cyano-1,3-thiazol-2-yl)amino]-5-methyl-2-[(2S)-2-(4-methylphenyl)pyrrolidin-1-yl]-N-(l-methylpiperidin-4-yl)pyrimidine-4-carboxamide]
2.7 nM	> 1000 nM	1.8 nM	CCc1c(COC)nc(N2CCC[C@H]2c2ccc(C)cc2)nc1Nc1ncc(C#N)s1 [Example 57, 2-({5-Ethyl-6-(methoxymethyl)-2-[(2S)-2-(4-methylphenyl)pyrrolidin-1-yl]pyrimidin-4-yl}amino)-1,3-thiazole-5-carbo nitrile]
2.1 nM	> 1000 nM	2.6 nM	COc1c(Nc2ncc(C#N)s2)nc(N2CCC[C@H]2c2ccc(C)cc2)nc1C(=O)N[C@H]1CC[C@H](O)CC1 [Example 62, 6-[(5-Cyano-1,3-thiazol-2-yl)amino]-N-(trans-4-hydroxycyclohexyl)-5-methoxy-2-[(2S)-2-(4-methylphenyl)pyrrolidin-1-yl]pyrimidine-4-carboxamide]
1.3 nM	140 nM	4.3 nM	Cc1ccc([C@@H]2CCCN2c2cnc(C)c(Nc3ncc(C)s3)n2)cc1 [Example 29, 3-Methyl-6-[(2S)-2-(4-methylphenyl)pyrrolidin-1-yl]-N-(5-methyl-1,3-thiazol-2-yl)pyrazine-2-amine]
0.6 nM	24 nM	0.3 nM	CNC(=O)c1cc(N2CCC[C@H]2c2ccc(C)cc2)nc(Nc2ncc(C#N)s2)c1C [Example 55, 2-[(5-Cyano-1,3-thiazol-2-yl)amino]-N,3-dimethyl-6-[(2S)-2-(4-methylphenyl)pyrrolidin-1-yl]pyridine-4-carboxamide]

— patent US9580413B2, “Substituted pyrrolidines as ROS tyrosine kinase inhibitors” (NIPPON SHINYAKU CO., LTD., priority 2012, dated 2017)
